Consider 22 compounds from patent US12570662B2, “Substituted pyrrolo[1,2-b]pyridazines as bifunctional degraders of interleukin-1 receptor-associated kinases” (Nurix Therapeutics, Inc., priority 2021, dated 2026).

The term DC50 denotes the concentration at which degradation of the target reaches its halfway point. Higher therefore signals a less potent degrader. A word on the Dmax: it is the greatest extent of degradation seen.

For the test, the target named is T1, IRAK4 (Homo sapiens, UniProt Q9NWZ3).
T1 construct: C-terminal HiBiT-tagged Jurkat cells (polyclonal cell line or clone 8D5); endogenous in cells; host or cells: Jurkat cells (polyclonal cell line or clone 8D5), HiBiT-tagged
T1 sequence (Q9NWZ3 1-460): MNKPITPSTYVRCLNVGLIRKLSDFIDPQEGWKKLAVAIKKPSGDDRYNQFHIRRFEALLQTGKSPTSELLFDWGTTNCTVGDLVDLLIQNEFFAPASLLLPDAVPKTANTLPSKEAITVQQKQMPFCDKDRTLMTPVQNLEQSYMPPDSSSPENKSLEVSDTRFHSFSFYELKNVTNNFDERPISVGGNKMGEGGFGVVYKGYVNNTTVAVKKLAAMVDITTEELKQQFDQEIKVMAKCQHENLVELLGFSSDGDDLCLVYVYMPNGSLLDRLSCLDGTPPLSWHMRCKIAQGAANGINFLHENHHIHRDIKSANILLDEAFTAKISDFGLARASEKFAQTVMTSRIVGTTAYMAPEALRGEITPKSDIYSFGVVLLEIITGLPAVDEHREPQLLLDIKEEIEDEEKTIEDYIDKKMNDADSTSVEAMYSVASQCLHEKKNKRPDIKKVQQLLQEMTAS
Briefly: IRAK4 Degradation HiBit Assay. The test is classed as cell-based. As to conditions: C-terminal HiBiT-tagged Jurkat cells, 4 hrs incubation; for DC50: % IRAK4 remaining, four-parameter fit (IC50 used as DC50); for Dmax: from fit of % IRAK4 remaining, read-out: Dmax. The method, boiled down:
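Degradation was quantified by luminescence after adding lytic detection reagent containing LgBiT to HiBiT-tagged Jurkat cells (polyclonal or clone 8D5). Cells were treated 4 h at 32 °C across 11 concentrations from 10 μM to 0.1 nM final. Four-parameter curve fitting of % IRAK4 remaining versus DMSO gave DC50 and Dmax.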
Background: With HiBiT, luminescence reflects the tagged protein that the partner subunit can reach.

Consider `CCNc1cc(-c2ccc3cc(C#N)cnn23)ncc1-c1nnc(N2CC3CCC(C2)N3CC2CCN(c3ccc([C@H]4CCC(=O)NC4=O)cc3)CC2)s1` (racemic) [Example 102, rac-7-[5-(5-{8-[(1-{4-[(3R)-2,6-dioxopiperidin-3-yl]phenyl}piperidin-4-yl)methyl]-3,8-diazabicyclo[3.2.1]octan-3-yl}-1,3,4-thiadiazol-2-yl)-4-(ethylamino)pyridin-2-yl]pyrrolo[1,2-b]pyridazine-3-carbonitrile], for which the DC50 is 42 nM and the Dmax is 107%.

`N#Cc1cnn2c(-c3cc(NC4(C#N)CC4)c(-c4nnc(N5CC6CCC(C5)N6CC5CCN(c6ccc([C@H]7CCC(=O)NC7=O)cn6)CC5)s4)cn3)ccc2c1` (racemic) [Example 103, rac-7-{4-[(1-cyanocyclopropyl)amino]-5-(5-{8-[(1-{5-[(3R)-2,6-dioxopiperidin-3-yl]pyridin-2-yl}piperidin-4-yl)methyl]-3,8-diazabicyclo[3.2.1]octan-3-yl}-1,3,4-thiadiazol-2-yl)pyridin-2-yl}pyrrolo[1,2-b]pyridazine-3-carbonitrile]: the DC50 stood at 12 nM and the Dmax is 106%.

For `N#CCNc1cc(-c2ccc3cc(C#N)cnn23)ncc1-c1nnc(N2CC3CCC(C2)N3CC2CCN(c3ccc([C@H]4CCC(=O)NC4=O)cn3)CC2)s1` (racemic) [Example 104, rac-7-{4-[(cyanomethyl)amino]-5-(5-{8-[(1-{5-[(3R)-2,6-dioxopiperidin-3-yl]pyridin-2-yl}piperidin-4-yl)methyl]-3,8-diazabicyclo[3.2.1]octan-3-yl}-1,3,4-thiadiazol-2-yl)pyridin-2-yl}pyrrolo[1,2-b]pyridazine-3-carbonitrile], the DC50 was found to be 4 nM and the Dmax came to 115%.

In the case of `N#CCNc1cc(-c2ccc3cc(C#N)cnn23)ncc1-c1nnc(N2CC3CCC(C2)N3CC2CCN(c3ccc([C@H]4CCC(=O)NC4=O)cc3)CC2)s1` (racemic) [Example 105, rac-7-{4-[(cyanomethyl)amino]-5-(5-{8-[(1-{4-[(3R)-2,6-dioxopiperidin-3-yl]phenyl}piperidin-4-yl)methyl]-3,8-diazabicyclo[3.2.1]octan-3-yl}-1,3,4-thiadiazol-2-yl)pyridin-2-yl}pyrrolo[1,2-b]pyridazine-3-carbonitrile], the DC50 was 6 nM and the Dmax was determined as 112%.

For the compound `N#Cc1cnn2c(-c3cc(NC4CCOCC4)c(-c4nnc(N5CCN(CC6CCN(c7ccc(C8CCC(=O)NC8=O)nc7)CC6)CC5)s4)cn3)ccc2c1` (racemic) [Example 106, rac-7-[5-(5-{4-[(1-{6-[(3R)-2,6-dioxopiperidin-3-yl]pyridin-3-yl}piperidin-4-yl)methyl]piperazin-1-yl}-1,3,4-thiadiazol-2-yl)-4-[(oxan-4-yl)amino]pyridin-2-yl]pyrrolo[1,2-b]pyridazine-3-carbonitrile], the DC50 stood at 21 nM and the Dmax came out at 99%.

For `N#Cc1cnn2c(-c3cc(NC4CCOCC4)c(-c4nnc(N5CCN(C[C@H]6CC[C@H](Oc7ccc([C@@H]8CCC(=O)NC8=O)cn7)CC6)CC5)s4)cn3)ccc2c1` (racemic) [Example 107, 7-{4-[(oxan-4-yl)amino]-5-[5-(4-{[(1r,4r)-4-({5-[(3RS)-2,6-dioxopiperidin-3-yl]pyridin-2-yl}oxy)cyclohexyl]methyl}piperazin-1-yl)-1,3,4-thiadiazol-2-yl]pyridin-2-yl}pyrrolo[1,2-b]pyridazine-3-carbonitrile], half-maximal degradation (DC50) was put at 65 nM and the Dmax was 111%.

As to `N#Cc1cnn2c(-c3cc(NC4CCOCC4)c(-c4nnc(N5CC6CCC(C5)N6C[C@H]5CC[C@H](Oc6ccc([C@@H]7CCC(=O)NC7=O)cn6)CC5)s4)cn3)ccc2c1` (racemic) [Example 108, 7-{4-[(oxan-4-yl)amino]-5-[5-(8-{[(1r,4r)-4-({5-[(3RS)-2,6-dioxopiperidin-3-yl]pyridin-2-yl}oxy)cyclohexyl]methyl}-3,8-diazabicyclo[3.2.1]octan-3-yl)-1,3,4-thiadiazol-2-yl]pyridin-2-yl}pyrrolo[1,2-b]pyridazine-3-carbonitrile], the DC50 was 40 nM and the Dmax came out at 87%.

As to `N#Cc1cnn2c(-c3cc(NC4CCC4)c(-c4nnc(N5CCN(CC6CCN(c7ccc(C8CCC(=O)NC8=O)cn7)CC6)CC5)s4)cn3)ccc2c1` (racemic) [Example 113, rac-7-[4-(cyclobutylamino)-5-(5-{4-[(1-{5-[(3R)-2,6-dioxopiperidin-3-yl]pyridin-2-yl}piperidin-4-yl)methyl]piperazin-1-yl}-1,3,4-thiadiazol-2-yl)pyridin-2-yl]pyrrolo[1,2-b]pyridazine-3-carbonitrile], the DC50 was determined as 239 nM and the Dmax worked out at 105%.

Consider `COC[C@@H](C)Nc1cc(-c2ccc3cc(C#N)cnn23)ncc1-c1nnc(N2CC3CCC(C2)N3CC2CCN(c3ccc(C4CCC(=O)NC4=O)cn3)CC2)s1` (mixture of isomers) [Example 114, 7-[5-(5-{8-[(1-{5-[(3RS)-2,6-dioxopiperidin-3-yl]pyridin-2-yl}piperidin-4-yl)methyl]-3,8-diazabicyclo[3.2.1]octan-3-yl}-1,3,4-thiadiazol-2-yl)-4-{[(2R)-1-methoxypropan-2-yl]amino}pyridin-2-yl]pyrrolo[1,2-b]pyridazine-3-carbonitrile], for which it took 100 nM to reach half-maximal degradation (DC50) and the Dmax came out at 110%.

Take `N#Cc1cnn2c(-c3cc(NC4CCOCC4)c(-c4nnc(N5CCN(CC6CCN(c7ccc([C@H]8CCC(=O)NC8=O)cn7)CC6)CC5)s4)cn3)ccc2c1` (single isomer, unassigned) [Example 30]: the DC50 stood at 40 nM and the Dmax stood at 104%.

Turning to `N#Cc1cnn2c(-c3cc(NC4CCOCC4)c(-c4nnc(N5CCN(CC6CCN(c7ccc([C@@H]8CCC(=O)NC8=O)cn7)CC6)CC5)s4)cn3)ccc2c1` (single isomer, unassigned) [Example 31], the DC50 amounted to 160 nM and the Dmax turned out to be 53%.

For the compound `CNc1cc(-c2ccc3cc(C#N)cnn23)ncc1-c1nnc(N2CCN(CC3CCN(c4ccc([C@H]5CCC(=O)NC5=O)cn4)CC3)CC2)s1` (single isomer, unassigned) [Example 41], the DC50 amounted to 1050 nM and the Dmax amounted to 83%.

With `CNc1cc(-c2ccc3cc(C#N)cnn23)ncc1-c1nnc(N2CCN(CC3CCN(c4ccc([C@@H]5CCC(=O)NC5=O)cn4)CC3)CC2)s1` (single isomer, unassigned) [Example 42], the DC50 was found to be 16 nM and the Dmax was 115%.

For `N#Cc1cnn2c(-c3cc(NC4CCOCC4)c(-c4nnc(N5CC6CCC(C5)N6CC5CCN(c6ccc([C@@H]7CCC(=O)NC7=O)cc6)CC5)s4)cn3)ccc2c1` (single isomer, unassigned) [Example 109], the DC50 worked out at 52 nM and the Dmax turned out to be 94%.

For the compound `N#Cc1cnn2c(-c3cc(NC4CCOCC4)c(-c4nnc(N5CC6CCC(C5)N6CC5CCN(c6ccc([C@H]7CCC(=O)NC7=O)cc6)CC5)s4)cn3)ccc2c1` (single isomer, unassigned) [Example 110], the DC50 was 50 nM and the Dmax is 50%.

Consider `N#Cc1cnn2c(-c3cc(NC4CCOCC4)c(-c4nnc(N5CC6CCC(C5)N6CC5CCN(c6ccc([C@@H]7CCC(=O)NC7=O)cn6)CC5)s4)cn3)ccc2c1` (single isomer, unassigned) [Example 111], for which half-maximal degradation (DC50) was put at 32 nM and the Dmax worked out at 110%.

In the case of `N#Cc1cnn2c(-c3cc(NC4CCOCC4)c(-c4nnc(N5CC6CCC(C5)N6CC5CCN(c6ccc([C@H]7CCC(=O)NC7=O)cn6)CC5)s4)cn3)ccc2c1` (single isomer, unassigned) [Example 112], the DC50 turned out to be 33 nM and the Dmax was 92%.

Turning to `N#Cc1cnn2c(-c3cc(NC4CCOCC4)c(-c4nnc(N5CCN(CC6CCN(c7ccc([C@H]8CCC(=O)NC8=O)nc7)CC6)CC5)s4)cn3)ccc2c1` (single isomer, unassigned) [Example 116], the DC50 came out at 100 nM and the Dmax turned out to be 111%.

Turning to `N#Cc1cnn2c(-c3cc(NC4CCOCC4)c(-c4nnc(N5CCN(CC6CCN(c7ccc([C@@H]8CCC(=O)NC8=O)nc7)CC6)CC5)s4)cn3)ccc2c1` (single isomer, unassigned) [Example 117], the DC50 was found to be 75 nM and the Dmax turned out to be 106%.

For the compound `CC(C)Nc1cc(-c2ccc3cc(C#N)cnn23)ncc1-c1nnc(N2CCN(CC3CCN(c4ccc([C@@H]5CCC(=O)NC5=O)cn4)CC3)CC2)s1` (single isomer, unassigned) [Example 118], the DC50 was 49 nM and the Dmax came out at 110%.

In the case of `N#Cc1cnn2c(-c3cc(NC4CC4)c(-c4nnc(N5CCN(CC6CCN(c7ccc([C@@H]8CCC(=O)NC8=O)cn7)CC6)CC5)s4)cn3)ccc2c1` (single isomer, unassigned) [Example 119], half-maximal degradation (DC50) was put at 30 nM and the Dmax came out at 111%.

In the case of `N#Cc1cnn2c(-c3cc(NC4CC4)c(-c4nnc(N5CCN(CC6CCN(c7ccc([C@@H]8CCC(=O)NC8=O)cc7)CC6)CC5)s4)cn3)ccc2c1` (single isomer, unassigned) [Example 120], it took 68 nM to reach half-maximal degradation (DC50) and the Dmax amounted to 109%.
